The values below come from ChEMBL document CHEMBL3301546, “MMV Malaria Box yeast growth screening”.

Holding throughout (format): functional
For assay [1], the system named is Saccharomyces cerevisiae. The experiment in a line: (§1) MMV: Growth assays were conducted using the prototrophic S. cerevisiae strain JHY222. Each MMV compound (0.1 mM) was tested in rich media containing dextrose as a carbon source (Yeast Extract, Peptone, Dextrose; YPD). The growth rate in the presence of each MMV compound was calculated as follows: (i) the first 10 OD readings were averaged and subtracted from all OD readings of the corresponding curve to set the baseline of the growth curve to zero, and (ii) the area under the curve (AUC) was then calculated as the sum of all OD readings. […] A relative growth value was calculated as follows: AUC(DRUG) - AUC(DMSO)/AUC(DMSO); where AUC(DMSO) represents growth measured in a DMSO control well that was on the same microtiter plate of the drug-treated culture.

For assay [2], the system named is Saccharomyces cerevisiae. The description is as §1, with “minimal” for “rich”, “Nitrogen Base,” for “Extract, Peptone,”, “YNBD).” for “YPD).”.
Assay [3] deals with Saccharomyces cerevisiae. Described as §1, with “minimal” for “rich”, “ethanol and glycerol” for “dextrose”, “as” for “as a”, “sources” for “source”, “Nitrogen Base, Ethanol, Glycerol; YNBEG).” for “Extract, Peptone, Dextrose; YPD).”.

With `CCOC(=O)C1=C(c2ccccc2)N=c2sc(=Cc3cc(C)n(-c4ccc(F)cc4)c3C)c(=O)n2C1c1cccc(OC)c1OC` (configuration not stated), the “Relative Growth” value in the assay with Saccharomyces cerevisiae [1] is on record as -0.0436; in the assay on Saccharomyces cerevisiae [2], 0.0967; in the assay on Saccharomyces cerevisiae [3] it was 0.1067.
In the case of `O=C(NCC(c1ccsc1)N1CCCCCC1)c1ccc(C(F)(F)F)cc1` (configuration not stated), the entries for the “Relative Growth” value in the assay with Saccharomyces cerevisiae [1], in the assay on Saccharomyces cerevisiae [2] and with Saccharomyces cerevisiae [3] were -0.0232, 0.0719 and 0.0335, respectively.
As to `CCOc1cccc2sc(N(Cc3cccnc3)C(=O)C3CCCCC3)nc12`, the “Relative Growth” value is reported as -0.0327 with Saccharomyces cerevisiae [1], -0.0544 with Saccharomyces cerevisiae [2] and -0.3394 in the assay with Saccharomyces cerevisiae [3].
Take `COc1ccc(C(=O)C2CC2c2ccc(Cl)cc2)cc1` (configuration not stated): the “Relative Growth” value in the assay with Saccharomyces cerevisiae [1] was -0.0484; with Saccharomyces cerevisiae [2], -0.0877; in the assay on Saccharomyces cerevisiae [3] it was -0.181.
In the case of `Cc1cc(Nc2ccc3ccccc3c2)n2ncnc2n1`, the “Relative Growth” value is reported as 0.0302 with Saccharomyces cerevisiae [1], 0.0095 in the assay on Saccharomyces cerevisiae [2] and -0.024 in the assay with Saccharomyces cerevisiae [3].
The corresponding values for `CCCc1c(CC)c(=N)c2ccccc2n1C` are -0.0123, -0.0316 and -0.1464.
As for `O=C(NC1CCN(Cc2ccccc2)CC1)c1cc2nc(-c3ccc(Cl)s3)cc(C(F)(F)F)n2n1`, the entries for the “Relative Growth” value in the assay with Saccharomyces cerevisiae [1], in the assay on Saccharomyces cerevisiae [2] and with Saccharomyces cerevisiae [3] were 0.0199, 0.0049 and -0.0027, respectively.
As for `Oc1ccc(Cl)cc1CNc1nc2ccccc2[nH]1`, the “Relative Growth” value in the assay with Saccharomyces cerevisiae [1] is given as -0.0141; in the assay on Saccharomyces cerevisiae [2] it was -0.0661; in the assay with Saccharomyces cerevisiae [3] it was -0.0134.
For `O=C(Nc1ccc(-c2nc3cc(NC(=O)c4ccc(Cl)cc4)ccc3[nH]2)cc1)c1ccc(Cl)cc1`, the “Relative Growth” value was -0.0297 in the assay with Saccharomyces cerevisiae [1], 0.0064 in the assay on Saccharomyces cerevisiae [2] and 0.0694 in the assay with Saccharomyces cerevisiae [3].
As for `O=C(NCc1ccco1)C1CCN(S(=O)(=O)c2ccc(Cl)cc2)CC1`, the “Relative Growth” value is listed as -0.0768 with Saccharomyces cerevisiae [1], -0.224 in the assay with Saccharomyces cerevisiae [2] and -0.0245 in the assay on Saccharomyces cerevisiae [3].
As to `Nc1ccn([C@@H]2O[C@H](CO)[C@@H](O)[C@H]2O)c(=O)n1` [CYTIDINE], the entries for the “Relative Growth” value in the assay with Saccharomyces cerevisiae [1], in the assay with Saccharomyces cerevisiae [2] and in the assay with Saccharomyces cerevisiae [3] were -0.0768, 0.1163 and -0.4063, respectively.
Turning to `COc1ccc(C2NCCc3c2[nH]c2ccccc32)cc1CN1CCN(c2ccc(F)cc2)CC1.Cl` (configuration not stated), the figures for the “Relative Growth” value with Saccharomyces cerevisiae [1], in the assay with Saccharomyces cerevisiae [2] and in the assay with Saccharomyces cerevisiae [3] were -0.0229, 0.0397 and -0.0259, respectively.
Take `CCOc1ccc2c(c1)CN(Cc1ccc(Cl)cc1)CO2`: the “Relative Growth” value is given as -0.0457 in the assay on Saccharomyces cerevisiae [1], -0.0363 in the assay on Saccharomyces cerevisiae [2] and -0.0581 with Saccharomyces cerevisiae [3].
On to `Cl.Cn1c(=O)n(C)c2cc(CNCCNc3ccnc4cc(Cl)ccc34)ccc21`, for which the results for the “Relative Growth” value in the assay on Saccharomyces cerevisiae [1], in the assay on Saccharomyces cerevisiae [2] and in the assay with Saccharomyces cerevisiae [3] were -0.0297, 0.301 and 0.2785, respectively.
Consider `CC(=O)c1sc(NC(=O)Nc2ccc(C)cc2C)nc1C`, for which the “Relative Growth” value is -0.0731 in the assay with Saccharomyces cerevisiae [1], -0.0182 in the assay on Saccharomyces cerevisiae [2] and 0.0857 in the assay with Saccharomyces cerevisiae [3].
Taken in the same sequence, the figures for `Cl.c1ccc2c(NCCCCCCNc3c4c(nc5ccccc35)CCCC4)c3c(nc2c1)CCCC3` were -0.0331, -0.2454 and -0.2596.
With `Nc1nc(Nc2cccc(F)c2)nc2ccccc12`, the “Relative Growth” value in the assay on Saccharomyces cerevisiae [1] is -0.0359; in the assay on Saccharomyces cerevisiae [2] it was -0.0889; in the assay with Saccharomyces cerevisiae [3] it was -0.012.
Taken in the same sequence, the figures for `Oc1ccc2ccccc2c1CNc1nc2ccccc2[nH]1` were -0.0053, -0.1179 and -0.0356.
For the compound `COc1cc2c3cc1Oc1c(OC)c(OC)cc4c1C(Cc1ccc(O)c(c1)Oc1ccc(cc1)CC3N(C)CC2)N(C)CC4.Cl` (configuration not stated), the figures for the “Relative Growth” value in the assay with Saccharomyces cerevisiae [1], with Saccharomyces cerevisiae [2] and in the assay on Saccharomyces cerevisiae [3] were -0.0961, 0.0109 and -0.1414, respectively.
